From patent publication US20230278957A1, “TREX1 INHIBITORS AND USES THEREOF” (WAKE FOREST UNIVERSITY HEALTH SCIENCES, priority 2020, published 2023)
“Also recorded” adds a separate entry of the source. Read-outs that look alike come from different tables or passages of the source.

Key:
Type in all cases: biochemical
[1] = target: T1, recombinant hTREX1(1-242)WT (hT1) (Homo sapiens, UniProt Q9NSU2); assay: fluorescence-based exonuclease assay, hTREX1 IC50 and HTS
T1 construct: recombinant hTREX1(1-242)^WT
T1 sequence (Q9NSU2 1-242): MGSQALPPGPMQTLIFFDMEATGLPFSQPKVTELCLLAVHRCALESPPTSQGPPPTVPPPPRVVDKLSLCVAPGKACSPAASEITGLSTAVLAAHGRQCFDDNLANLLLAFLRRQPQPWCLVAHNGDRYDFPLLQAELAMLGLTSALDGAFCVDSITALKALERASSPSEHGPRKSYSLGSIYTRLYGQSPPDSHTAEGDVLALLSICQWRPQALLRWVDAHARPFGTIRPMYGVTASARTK
Protocol: FIG. 1: Determining IC50 of Candidate Compounds. […] Standard time-course reactions were prepared in 150 µL volumes containing vehicle or indicated concentrations of inhibitor (Panel A= 0.1-10 µM; Panel C= 1-50 µM), incubated 1 hr at room temperature, and 20 µL samples of each reaction taken at time-points of 0, 5, 10, 20, 30, 45, & 60 minutes and quenched in 20 µL of 15X SYBR Green. Fluorescence was measured, and fluorescence versus time plots were normalized to maximal initial fluorescence and background fluorescence. Plots were fitted with nonlinear regression, then initial velocities of each reaction interpolated and normalized to vehicle-only control reactions to give percent activity. Plots of inhibitor concentration versus percent activity were fit with nonlinear regression to interpolate compound IC50. Plots were generated in Prism (GraphPad) and combined in PowerPoint. Active compounds had IC50 determined in at least three separate experiments. Panels E-F: Gel Assay Validation of Hit Compound IC50. Several hit compounds, including those shown, had their IC50 confirmed via gel assay to validate efficacy of the fluorescence-based biochemical assay. Results of the gel and fluorescence assays were in agreement for all compounds tested. Standard time-course reactions containing nicked plasmid were prepared in 150 µL volumes with the indicated concentrations of inhibitor, and incubated at room temperature. Reaction samples were taken at indicated times, quenched, dried in vacuo, resuspended, then visualized by agarose gel electrophoresis. Control lanes containing supercoiled dsDNA plasmid (‘Plasmid’) and undegraded nicked dsDNA plasmid (‘Nicked’) are included. Low-MW residual bands are ssDNA plasmid leftover from TREX1 exonuclease activity.
We altered a reported fluorescence-based exonuclease assay^17,23 for the purposes of HTS. The assay parameters were optimized to limit materials use and maximize the dynamic range of the assay readout. We used this assay to perform a HTS of the three mentioned libraries against recombinant hTREX1(1-242)^WT, hereafter abbreviated as ‘hT1’. In the case of all libraries, compounds eliciting ≤50% activity at their indicated screening concentrations were identified as ‘candidates’.
The biochemical assay used for HTS was also applied to determining candidate IC50. Briefly, time-course reactions were performed for a range of concentrations for each candidate, and plots of fluorescence vs time were normalized to the initial fluorescence of the reaction and the plate-wide background fluorescence. This normalization helped address compounds with inherent effects on the fluorescent readout. Initial velocities were calculated from normalized plots and used to calculate percent activities relative to vehicle-only control reactions. Standard dose-response curves were then constructed to interpolate candidate IC50. […] Candidates that initially tested with IC50 ≤100 µM had their IC50 redetermined in two additional, independent experiments. […] To validate the efficacy of the fluorescence-based assay at determining IC50, several of the hit compounds had their IC50 confirmed using a gel assay previously described by our lab^23. Briefly, a dsDNA plasmid is nicked, the substrate is incubated with TREX1 which degrades off (partially or completely) the nicked strand, and the reaction is quenched in ethanol, dried in vacuo, and visualized via agarose gel electrophoresis. Example data of these validation assays is provided (FIG. 1, Panels E-F).

hT1 = target: T2, hT1 (Homo sapiens, UniProt Q9NSU2); assay: jump-dilution reversibility of inhibition; conditions: for reversibility classification: by IC50 ratio of jump-dilution
T2 construct: recombinant hTREX1(1-242)^WT
T2 sequence (Q9NSU2 1-242): T1 sequence (Q9NSU2 1-242)
Protocol: FIG. 4: Reversibility of Inhibition for Lead Compounds. Panel A: Summary chart of the results for each lead compound. IC50 ratios were calculated by dividing the […]. An IC50 ratio of 10 is expected for irreversible inhibitors, and the results were classified as follows: ≥ 5.0 → Irreversible, 2.0-5.0 → Ambiguous, 0.5-2.0 → Reversible. Panels B-G: Standard IC50 experiments were conducted with various concentrations of each lead compound. However, before enzyme addition to the reaction components the inhibitor or vehicle was pre-incubated with either the reaction components at ~1X the final concentration (‘Reaction Pre-Incubation’) or the enzyme at ~10X the final concentration (‘Enzyme Pre-Incubation’). The enzyme and reaction components were then combined to initiate reactions, and IC50 calculated as discussed earlier. TIM190 was included as an example of an irreversible inhibitor. Plots were generated in Prism (GraphPad), and figure was assembled in PowerPoint.
To determine whether our leads’ inhibition mechanisms were reversible, we utilized a strategy known as a ‘jump-dilution′^76. With this strategy, an inhibitor is initially incubated with the target at a high concentration, then, the inhibitor and target are diluted into reaction mix and the potency of the inhibitor is compared to a similar reaction without the pre-incubation step. If an inhibitor is covalent, time-dependent (slow-binding), or otherwise irreversible, then it will display potency consistent with the higher initial concentration, while reversible inhibitors’ potency is not meaningfully affected by the pre-incubation. We performed jump dilution experiments for our leads with our earlier described biochemical assay (FIG. 3). Under our conditions, irreversible inhibitors were expected to display a 10-fold potency increase in the jump-dilution reactions.

[2] = target: T3, recombinant wild-type human TREX2(1-236) (hT2) (Homo sapiens, UniProt Q9BQ50); assay: fluorescence-based exonuclease assay, counter-screen against hTREX2; conditions: up to an inhibitor concentration of 100 µM
T3 construct: recombinant wild-type human TREX2(1-236), hereafter ‘hT2’
T3 sequence (Q9BQ50 1-236): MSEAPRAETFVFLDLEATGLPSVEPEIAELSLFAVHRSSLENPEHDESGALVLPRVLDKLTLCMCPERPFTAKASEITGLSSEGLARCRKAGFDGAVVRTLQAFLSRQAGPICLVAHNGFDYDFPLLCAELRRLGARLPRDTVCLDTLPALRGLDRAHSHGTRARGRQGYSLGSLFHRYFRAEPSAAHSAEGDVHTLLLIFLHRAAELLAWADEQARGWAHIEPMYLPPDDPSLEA
Protocol: (§1) FIG. 3: Counter-Screening Hit Compounds Against mTREX1 and hTREX2 Enzymes. Panel A: Summary chart of lead compounds’ IC50 against hTREX1 vs mTREX1 versus hTREX2. Panels B-F: Overlay of lead compounds’ dose-response curves for hTREX1, mTREX1, and hTREX2. Dose-response curves were generated as described earlier. Each dose-response curve is representative of three IC50 experiments. Graphs were prepared in Prism (GraphPad), and figure was assembled in PowerPoint.
(§2) We were also interested in the activity of our leads against enzymes more closely related to hT1, namely murine TREX1 and the highly related human TREX2 enzyme. mTREX1 was of interest, since future studies of the lead compounds would presumably take place in a murine model. hTREX2, which also functions as a 3′➔5′ exonuclease, is primarily expressed in keratinocytes (while TREX1 expression is more ubiquitous), and its mutation is not associated with an autoimmune phenotype, but instead results in a hypermutator phenotype in the skin that is conditional upon exposure to ultraviolet radiation^10,72-74. For mTREX1, cross-activity was preferred to allow later efficacy studies in a murine model. […] We determined the IC50 of lead compounds for recombinant wild-type murine TREX1(1-242), hereafter ‘mT1’, and for recombinant wild-type human TREX2(1-236), hereafter ‘hT2’ (FIG. 2). […]

[3] = target: T4, recombinant wild-type murine TREX1(1-242) (mT1) (Mus musculus, UniProt Q91XB0); assay: fluorescence-based exonuclease assay, counter-screen against mTREX1; conditions: up to an inhibitor concentration of 100 µM
T4 construct: recombinant wild-type murine TREX1(1-242), hereafter ‘mT1’
T4 sequence (Q91XB0 1-242): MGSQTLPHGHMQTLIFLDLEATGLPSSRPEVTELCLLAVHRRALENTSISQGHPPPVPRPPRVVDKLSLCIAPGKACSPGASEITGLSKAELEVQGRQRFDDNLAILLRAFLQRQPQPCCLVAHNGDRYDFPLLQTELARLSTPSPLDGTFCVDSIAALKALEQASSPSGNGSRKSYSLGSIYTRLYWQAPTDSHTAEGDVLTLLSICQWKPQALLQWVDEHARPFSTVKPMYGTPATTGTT
Protocol: as §1, §2

[4] = experiment 1, read-out: IC50 #1
[5] = experiment 2, read-out: IC50 #2
[6] = experiment 3, read-out: IC50 #3
[7] = median of three independent experiments, read-out: Median IC50

IC50 [1, 4] | IC50 [1, 5] | IC50 [1, 6] | IC50 [1, 7] | reversibility classification (hT1) | increase in potency as a result of the jump-dilution (hT1; enzyme pre-incubation vs control reaction, 10-fold expected for irreversible inhibitors) | inhibition of hT2 [2] | inhibition of hT1 (in words) [1] | SMILES | inhibition of mT1 [3]
5.1 µM | 7 µM | 7 µM | 7 µM | – | – | – | – | COc1ccc2[nH]c3c(c2c1)CCC[C@H]3NC(=O)COc1ccc2c3c(c(=O)oc2c1)CCCC3 [TIM184] | –
13.1 µM | 14.9 µM | 113 µM | 14.9 µM | – | – | – | – | Cc1ccc2nc(N3C(=O)C(=O)C(=C(O)c4ccc5c(c4)C[C@H](C)O5)[C@@H]3c3cccs3)sc2c1 [TIM185] | –
10.7 µM | 10.7 µM | 13.5 µM | 10.7 µM | irreversible | – | – | – | O=C(O)c1ccc(-c2ccc(/C=c3\sc4nc5cc(Br)cnc5n4c3=O)o2)cc1 [TIM190] | –
8.5 µM | 7.8 µM | 10 µM | 8.5 µM | – | – | – | – | Cn1c(O)c(N=NC(=O)[C@@H]2COc3cc4ccccc4cc3O2)c2cc(Br)ccc21 [TIM191] | –
13.3 µM | 13 µM | 8.1 µM | 13 µM | – | – | – | – | COc1cc2c3c(ccc4c5ccc6c7c(cc(OC)c(c1c34)c75)-c1ccccc1C6=O)-c1ccccc1C2=O [TIM192] | –
13.5 µM | 7.8 µM | 8.9 µM | 8.9 µM | ambiguous | 2.9 fold | – | – | Cc1ccc(N2NC(=O)/C(=C/c3ccc(-c4ccc5c(c4)C(=O)NC5=O)o3)C2=O)cc1C [TIM207] | –
2.4 µM | 5 µM | 10.7 µM | 5 µM | – | – | – | – | O=C1Nc2ccc(S(=O)(=O)ON3C(=O)c4cccc5cccc(c45)C3=O)c3cccc1c23 [TIM213] | –
13.9 µM | 14.6 µM | 12 µM | 13.9 µM | – | – | – | – | O=c1c2cnc3nc(-c4ccc(Cl)cc4)nn3c2ccn1Cc1cccnc1 [TIM215] | –
12.7 µM | 7.6 µM | 17.8 µM | 12.7 µM | – | – | no detectable inhibition | did inhibit hT1 | O=C(c1ccc2nonc2c1)N1CCCCC1c1nc2cc(F)ccc2[nH]1 (stereo not shown) [TIM218] | no detectable inhibition; also recorded: does not inhibit mT1

The remaining lines, values behind:

SMILES | IC50 [1, 4] | IC50 [1, 5] | IC50 [1, 6] | IC50 [1, 7] | reversibility classification (hT1) | increase in potency as a result of the jump-dilution (hT1; enzyme pre-incubation vs control reaction, 10-fold expected for irreversible inhibitors) | inhibition of hT2 [2] | inhibition of hT1 (in words) [1] | inhibition of mT1 [3]
Cc1cccc(C(=O)Nc2ccc(-c3cc4ccccc4oc3=O)cc2)c1 [TIM003] | 24.9 µM | 7.8 µM | 8.8 µM | 8.8 µM | – | – | – | – | –
Cc1cnc(/C=C/c2ccccc2)c2[nH]c3ccccc3c12 [TIM047] | 16 µM | 6.8 µM | 15 µM | 15 µM | – | – | – | – | –
COc1ccc(N2C(=O)c3ccc(Oc4ccc(Oc5ccc(C(=O)O)cc5)cc4)cc3C2=O)cc1 [TIM050] | 3.7 µM | 3 µM | 5.3 µM | 3.7 µM | – | – | – | – | –
O=C1c2cccc([N+](=O)[O-])c2C(=O)N1c1cccc(-c2nc3ccccc3c(=O)o2)c1 [TIM136] | 5.7 µM | 9.9 µM | 10.2 µM | 9.9 µM | – | – | – | – | –
CCn1c2ccccc2c2cc([C@H]3Nc4ccccc4NC4=C3C(=O)C[C@@H](c3ccc(OC)cc3)C4)ccc21 [TIM137] | 6.7 µM | 16.2 µM | 5.6 µM | 6.7 µM | – | – | – | – | –
Cc1cc(C)c(S(=O)(=O)Nc2ccc3c(c2)c2c(n3S(=O)(=O)c3cc(C)c(C)cc3C)CCCC2=O)cc1C [TIM146] | 15 µM | 6.4 µM | 37.9 µM | 15 µM | – | – | – | – | –
Cc1ccc(-n2c(=O)c3cc4c(=O)n(-c5ccc(C)c(C)c5)c(=O)c4c(C(=O)c4ccc(C(=O)O)cc4)c3c2=O)cc1C [TIM148] | 6.4 µM | 8.5 µM | 11.9 µM | 8.5 µM | – | – | – | – | –
Cc1ccc(-c2noc(-c3cc(N4CCC(C(N)=O)CC4)nc4ccccc34)n2)cc1 [TIM178] | 6.9 µM | 3.7 µM | 7.2 µM | 6.9 µM | – | – | – | – | –
CC(C)(C)c1ccc(CC2CCN(C(=O)c3cncn3-c3cccc(-c4cccc5c4sc4ccccc45)c3)CC2)cc1 [TIM181] | 3.5 µM | 5.9 µM | 4.6 µM | 4.6 µM | – | – | – | – | –
N#Cc1c(O)nc(SCC(=O)N2c3ccccc3Sc3ccccc32)nc1-c1ccccc1 [TIM183] | 3.6 µM | 8.5 µM | 8.8 µM | 8.5 µM | – | – | – | – | –
